These results are taken from patent US20260207578A1, “COMPOUND BASED ON SULFUR/OXYGEN SUBSTITUTED GLUTARIMIDE-BASED ISOINDOLINONE SKELETON AND USE THEREOF” (Gluetacs Therapeutics (Shanghai) Co., LTD., priority 2022, published 2026).

Assay [1] has as its target T1, Wee1 (Homo sapiens, UniProt P30291+Q96SW2).
T1 construct: endogenous in cells; host or cells: human PBMCs (Milecell Biotechnologies)
Nature of the assay: Western-blot assay, substrate protein in hPBMCs. It counts as cell-based. As to conditions: hPBMC cells, 24 hours, tested at 50 nM and 500 nM, table does not say which. The procedure:
(§1) The effect of the compounds of the present disclosure on the expression of target proteins in cells was detected using conventional Western blot analysis.
(§2) Human peripheral blood mononuclear cells (hPBMCs) at a density of 1×10^6 cells/mL were thawed according to the PBMC Recovery Protocol (Milecell Biotechnologies Inc, Shanghai).
(§3) After 24 hours of compounds treatment, cells were harvested and lysed in RIPA protein lysate containing phosphatase inhibitors on ice for 30-60 min, followed by centrifugation. The supernatant was aspirated as the extracted total cell protein. The protein concentration of the supernatant was determined using the conventional BCA (Bicinchoninic Acid) assay. The supernatant was then mixed with 4× SDS sample loading buffer, denatured at 95° C. for 5 minutes, and then subjected to SDS-PAGE electrophoresis on a polyacrylamide gel. Proteins were then transferred to a nitrocellulose (NC) membrane, blocked at room temperature for 1-2 h, and processed for antibody incubation and detection according to the manufacturer's instructions (Cell Signaling Technology).
(§4) Half-Maximal Degradation Concentration value (the drug concentration required for degrading proteins by 50%, abbreviated as DC50) reads method: comparing the grayscale values of Western blot bands from drug-treated samples with those from blank DMSO-treated controls, and identifying the drug concentration range at which the grayscale value is half that of the DMSO-treated control bands.
(§5) DC50 values can be calculated using ImageJ software to measure grayscale values of Western blot bands from drug-treated samples. The concentration-response curve is fitted to estimate the drug concentration corresponding to half the grayscale value.
(§6) Target protein remaining (%) refers to the percentage of target protein remaining in hPBMC cells after treatment with protein degrader compounds.
(§7) Calculation method for protein remaining (%): Use ImageJ software to measure grayscale values of Western blot bands from drug (protein degrader)-treated samples. The grayscale value of drug-treated bands is divided by that of internal control protein bands, and the resulting quotient is normalized to obtain the relative percentage of remaining target protein after protein degrader treatment.
(§8) Target protein degradation rate (%)=100%−target protein remaining (%).

The target in assay [2] is T2, human Cereblon WT GST-tagged protein (Homo sapiens, UniProt Q96SW2).
T2 construct: purchased CISBIO 64BDCRBNPEH
Nature of the assay: CRBN-binding affinity, HTRF (CEREBLON BINDING kit). As to conditions: displacement of Thalidomide-Re reagent, 3 hours at room temperature. The procedure:
The CEREBLON BINDING kits (specification: 10,000 tests; product number: Catalog #64BDCRBNPEH; CISBIO company) was used to determine the CRBN binding ability of the compounds to be tested through a HTRF method (homogeneous time-resolved fluorescence). The specific methods are as follows: • 1. […] Then, 2.5 μL of human Cereblon WT GST-tagged protein solution was added to each well. Finally, 5 μL of the thoroughly mixed Thalidomide-Re reagent and GST Eu antibody working solution were added to each of the aforementioned wells. […] The blank control wells were sequentially added with 2.5 μL of diluent #9 (1×) solution, 2.5 μL of PROTAC binding buffer, and 5 μL of thoroughly mixed Thalidomide-Re reagent and GST Eu antibody working solution. • 4.
OD 620 nmcompound is the absorbance value of each well of the compounds to be tested of the present disclosure at an emission wavelength of 620 nm. […] OD 620 nmcontrol is the absorbance value of the blank control well at an emission wavelength of 620 nm. […] OD 620 nmStd0 is the absorbance value of the solvent control well at an emission wavelength of 620 nm.
In general terms: Time-resolved FRET reads energy transfer from a long-lived donor to a nearby acceptor.

In assay [3] the target is T3, GSPT1 (Homo sapiens, UniProt P15170+Q96SW2).
T3 construct: endogenous in cells; host or cells: human PBMCs (Milecell Biotechnologies)
The assay is described as follows: Western-blot assay, substrate protein in hPBMCs. It counts as cell-based. The following applies: hPBMC cells, 24 hours, tested at 50 nM and 500 nM, table does not say which. The procedure:
as §1, §2, §3, §4, §5, §6, §7, §8

What is called IC50 is the midpoint of a concentration-inhibition curve. Read a low IC50 as greater potency in that assay.

T1 sequence (P30291 whole entry): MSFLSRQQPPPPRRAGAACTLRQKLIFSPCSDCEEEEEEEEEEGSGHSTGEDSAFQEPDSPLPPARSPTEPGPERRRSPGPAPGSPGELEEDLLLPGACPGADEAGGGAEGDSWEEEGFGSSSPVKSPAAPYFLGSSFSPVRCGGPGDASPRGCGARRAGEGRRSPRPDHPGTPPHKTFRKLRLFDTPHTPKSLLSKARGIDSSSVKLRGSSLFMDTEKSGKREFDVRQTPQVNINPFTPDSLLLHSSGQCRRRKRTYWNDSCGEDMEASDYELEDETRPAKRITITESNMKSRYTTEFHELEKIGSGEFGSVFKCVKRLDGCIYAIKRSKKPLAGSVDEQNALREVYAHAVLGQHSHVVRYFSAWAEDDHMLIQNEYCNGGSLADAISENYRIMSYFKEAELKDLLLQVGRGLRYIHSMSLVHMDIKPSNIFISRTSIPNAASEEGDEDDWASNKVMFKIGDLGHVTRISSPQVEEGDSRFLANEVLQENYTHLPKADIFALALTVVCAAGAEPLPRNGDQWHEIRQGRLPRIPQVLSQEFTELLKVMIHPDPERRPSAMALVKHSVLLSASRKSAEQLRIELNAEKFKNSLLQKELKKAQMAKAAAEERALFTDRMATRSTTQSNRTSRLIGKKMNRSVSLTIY
T1 sequence (Q96SW2 whole entry): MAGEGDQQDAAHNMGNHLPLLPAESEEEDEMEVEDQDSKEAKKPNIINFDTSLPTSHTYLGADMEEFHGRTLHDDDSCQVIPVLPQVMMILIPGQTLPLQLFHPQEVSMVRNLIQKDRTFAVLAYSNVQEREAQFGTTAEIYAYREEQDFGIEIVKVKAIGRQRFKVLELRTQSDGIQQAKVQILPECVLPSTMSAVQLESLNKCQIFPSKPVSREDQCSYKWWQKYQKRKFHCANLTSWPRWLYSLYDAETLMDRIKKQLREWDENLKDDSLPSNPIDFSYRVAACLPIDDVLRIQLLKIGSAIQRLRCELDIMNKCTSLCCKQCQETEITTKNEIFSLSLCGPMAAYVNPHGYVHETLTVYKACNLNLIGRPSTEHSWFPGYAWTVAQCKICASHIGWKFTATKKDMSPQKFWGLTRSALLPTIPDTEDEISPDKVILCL
T1 sequence (Q16531 whole entry partner): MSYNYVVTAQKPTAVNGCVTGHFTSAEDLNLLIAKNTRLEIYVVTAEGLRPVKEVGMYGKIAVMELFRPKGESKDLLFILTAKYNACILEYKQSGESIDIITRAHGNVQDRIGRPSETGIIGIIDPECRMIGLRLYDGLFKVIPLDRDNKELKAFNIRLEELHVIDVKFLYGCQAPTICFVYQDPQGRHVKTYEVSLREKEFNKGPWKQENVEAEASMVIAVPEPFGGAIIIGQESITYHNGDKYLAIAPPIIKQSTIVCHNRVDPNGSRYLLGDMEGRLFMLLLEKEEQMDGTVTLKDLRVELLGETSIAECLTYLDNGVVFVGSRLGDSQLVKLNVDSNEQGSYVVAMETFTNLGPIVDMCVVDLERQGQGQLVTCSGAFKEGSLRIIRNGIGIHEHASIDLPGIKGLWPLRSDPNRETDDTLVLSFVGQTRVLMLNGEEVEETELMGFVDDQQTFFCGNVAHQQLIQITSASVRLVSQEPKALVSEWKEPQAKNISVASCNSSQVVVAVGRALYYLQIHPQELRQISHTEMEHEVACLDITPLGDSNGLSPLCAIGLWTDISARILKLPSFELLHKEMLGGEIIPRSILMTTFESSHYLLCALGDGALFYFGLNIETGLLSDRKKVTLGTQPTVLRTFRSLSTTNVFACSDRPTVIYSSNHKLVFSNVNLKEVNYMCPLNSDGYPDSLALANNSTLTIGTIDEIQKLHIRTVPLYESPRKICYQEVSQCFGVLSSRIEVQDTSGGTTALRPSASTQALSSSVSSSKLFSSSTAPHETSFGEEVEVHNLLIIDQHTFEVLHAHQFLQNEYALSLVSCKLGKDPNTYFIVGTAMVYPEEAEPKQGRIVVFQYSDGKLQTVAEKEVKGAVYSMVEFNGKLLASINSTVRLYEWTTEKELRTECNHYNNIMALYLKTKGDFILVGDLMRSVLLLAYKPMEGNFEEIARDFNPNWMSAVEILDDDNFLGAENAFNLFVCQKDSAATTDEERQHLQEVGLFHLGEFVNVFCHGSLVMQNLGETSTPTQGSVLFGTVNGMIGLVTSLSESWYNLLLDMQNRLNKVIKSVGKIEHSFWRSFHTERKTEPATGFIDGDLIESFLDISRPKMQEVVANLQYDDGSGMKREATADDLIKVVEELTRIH
T2 sequence (Q96SW2 whole entry): as the sequence (Q96SW2 whole entry) above
T3 sequence (P15170 whole entry): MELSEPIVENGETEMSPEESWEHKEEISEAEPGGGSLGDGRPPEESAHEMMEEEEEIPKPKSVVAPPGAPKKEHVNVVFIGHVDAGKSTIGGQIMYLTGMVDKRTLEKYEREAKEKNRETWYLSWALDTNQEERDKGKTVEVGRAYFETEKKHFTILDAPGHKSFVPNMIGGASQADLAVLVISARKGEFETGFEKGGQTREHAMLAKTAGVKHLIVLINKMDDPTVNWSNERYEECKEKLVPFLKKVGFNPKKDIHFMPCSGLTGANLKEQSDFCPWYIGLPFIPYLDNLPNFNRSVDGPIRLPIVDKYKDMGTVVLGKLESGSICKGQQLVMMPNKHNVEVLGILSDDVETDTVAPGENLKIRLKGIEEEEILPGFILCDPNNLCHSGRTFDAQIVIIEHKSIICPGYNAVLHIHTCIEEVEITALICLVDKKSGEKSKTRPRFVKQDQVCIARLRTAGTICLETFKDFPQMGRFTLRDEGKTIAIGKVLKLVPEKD
T3 sequence (Q96SW2 whole entry): as the sequence (Q96SW2 whole entry) above
T3 sequence (Q16531 whole entry partner): as the sequence (Q16531 whole entry partner) above

Regarding `O=C1CCC(N2Cc3cc(OC4CNC4)ccc3C2=O)C(=O)N1` (centres unmarked) [GT-03614, 3-(5-(azetidin-3-yloxy)-1-oxoisoindolin-2-yl)piperidine-2,6-dione], in assay [1], the “substrate protein remaining %” value is listed as “A (0%≤ substrate protein remaining % ≤80%)”.
Compound `O=C1CCC(N2Cc3cc(SC4CCN(Cc5ccccc5-c5ccc(Cl)cc5)C4)ccc3C2=O)C(=O)N1` (centres unmarked) [GT-04195, 3-(5-((1-((4′-chloro-[1,1′-biphenyl]-2-yl)methyl)pyrrolidin-3-yl)thio)-1-oxoisoindolin-2-yl)piperidine-2,6-dione] yielded an IC50 in assay [2] of 1000 to 1900 nM.
With `O=C1CCC(N2Cc3cc(SC4CCNC4)ccc3C2=O)C(=O)N1` (centres unmarked) [GT-04309, 3-(1-oxo-5-(pyrrolidin-3-ylthio)isoindolin-2-yl)piperidine-2,6-dione], in assay [3], the “substrate protein remaining %” value is reported as “A (0%≤ substrate protein remaining % ≤80%)”.
`CC1(C)CCC(C(=O)N2CCC(Sc3ccc4c(c3)CN(C3CCC(=O)NC3=O)C4=O)C2)=C(c2ccc(Cl)cc2)C1` (centres unmarked) [GT-06139, 3-(5-((1-(4′-chloro-5,5-dimethyl-3,4,5,6-tetrahydro-[1,1′-biphenyl]-2-carbonyl)pyrrolidin-3-yl)thio)-1-oxoisoindolin-2-yl)piperidine-2,6-dione]: in assay [2], the half-maximal inhibitory concentration (IC50) was in the range of 500 to 1000 nM.
In the case of `CC1(C)CCC(C(=O)N2CCC(Sc3ccc4c(c3)CN(C3CCC(=O)NC3=O)C4=O)CC2)=C(c2ccc(Cl)cc2)C1` (centres unmarked) [GT-06140, 3-(5-((1-(4′-chloro-5,5-dimethyl-3,4,5,6-tetrahydro-[1,1′-biphenyl]-2-carbonyl)piperidin-4-yl)thio)-1-oxoisoindolin-2-yl)piperidine-2,6-dione], in assay [1], the “substrate protein remaining %” value is on record as “A (0%≤ substrate protein remaining % ≤80%)”. The same compound had an IC50 in assay [2] of 500 to 1000 nM.
As for `O=C1CCC(N2Cc3cc(OC4CN(C(=O)c5ccccc5-c5ccc(Cl)cc5)C4)ccc3C2=O)C(=O)N1` (centres unmarked) [GT-06183, 3-(5-((1-(4′-chloro-[1,1′-biphenyl]-2-carbonyl)azetidin-3-yl)oxy)-1-oxoisoindolin-2-yl)piperidine-2,6-dione], in assay [1], the “substrate protein remaining %” value is recorded as “A (0%≤ substrate protein remaining % ≤80%)”. This compound also showed an IC50 in assay [2] of less than 500 nM.
`O=C1CCC(N2Cc3cc(SC4CN(C(c5ccc(Cl)cc5)c5ccc(Cl)cc5)C4)ccc3C2=O)C(=O)N1` (centres unmarked) [GT-06504, 3-(5-((1-(bis(4-chlorophenyl)methyl)azetidin-3-yl)thio)-1-oxoisoindolin-2-yl)piperidine-2,6-dione]: the IC50 in assay [2] lay in the range of 500 to 1000 nM.
For `O=C1CCC(N2Cc3cc(SC4CN(CC5=C(c6ccc(F)cc6)CCOC5)C4)ccc3C2=O)C(=O)N1` (centres unmarked) [GT-06513, 3-(5-((1-((4-(4-fluorophenyl)-5,6-dihydro-2H-pyran-3-yl)methyl)azetidin-3-yl)thio)-1-oxoisoindolin-2-yl)piperidine-2,6-dione], in assay [3], the “substrate protein remaining %” value is recorded as “A (0%≤ substrate protein remaining % ≤80%)”. In assay [2], this compound came in with a half-maximal inhibitory concentration (IC50) of less than 500 nM.
The compound `O=C1CCC(N2Cc3cc(SC4CN(Cc5ccc(-c6ccco6)s5)C4)ccc3C2=O)C(=O)N1` (centres unmarked) [GT-06517, 3-(5-((1-((5-(furan-2-yl)thiophen-2-yl)methyl)azetidin-3-yl)thio)-1-oxoisoindolin-2-yl)piperidine-2,6-dione] gave a half-maximal inhibitory concentration (IC50) in assay [2] of less than 500 nM.
As to `O=C1CCC(N2Cc3cc(OC4CN(C(c5ccc(Cl)cc5)c5ccc(Cl)cc5)C4)ccc3C2=O)C(=O)N1` (centres unmarked) [GT-06520, 3-(5-((1-(bis(4-chlorophenyl)methyl)azetidin-3-yl)oxy)-1-oxoisoindolin-2-yl)piperidine-2,6-dione], the “substrate protein remaining %” value in assay [3] was “A (0%≤ substrate protein remaining % ≤80%)”. For the same compound, the IC50 in assay [2] lay in the range of 1000 to 1900 nM.
In the case of `O=C1CCC(N2Cc3cc(SC4CCCN(C(=O)c5ccccc5-c5ccc(Cl)cc5)CC4)ccc3C2=O)C(=O)N1` (centres unmarked) [GT-06644, 3-(5-((1-(4′-chloro-[1,1′-biphenyl]-2-carbonyl)azepan-4-yl)thio)-1-oxoisoindolin-2-yl)piperidine-2,6-dione], the “substrate protein remaining %” value in assay [3] is “A (0%≤ substrate protein remaining % ≤80%)”. The compound further showed an IC50 in assay [2] of less than 500 nM.
The compound `CC1(C)CCC(CN2CC(Sc3ccc4c(c3)C(=O)N(C3CCC(=O)NC3=O)C4)C2)=C(c2ccc(Cl)cc2)C1` (centres unmarked) [GT-06757, 3-(6-((1-((4′-chloro-5,5-dimethyl-3,4,5,6-tetrahydro-[1,1′-biphenyl]-2-yl)methyl)azetidin-3-yl)thio)-1-oxoisoindolin-2-yl)piperidine-2,6-dione] registered an IC50 in assay [2] of 1000 to 1900 nM.
Consider `O=C1CCC(N2Cc3cc(SC4CN(C(c5ccccc5)c5cccnc5)C4)ccc3C2=O)C(=O)N1` (centres unmarked) [GT-06807, 3-(1-oxo-5-((1-(phenyl(pyridin-3-yl)methyl)azetidin-3-yl)thio)isoindolin-2-yl)piperidine-2,6-dione], for which the IC50 in assay [2] was less than 500 nM.
For `COc1ccc(C(c2ccc(OC)cc2)N2CC(Sc3ccc4c(c3)CN(C3CCC(=O)NC3=O)C4=O)C2)cc1` (centres unmarked) [GT-06923, 3-(5-((1-(bis(4-methoxyphenyl)methyl)azetidin-3-yl)thio)-1-oxoisoindolin-2-yl)piperidine-2,6-dione], in assay [2], the IC50 was less than 500 nM.
With `O=C1CCC(N2Cc3c(SC4CNC4)cccc3C2=O)C(=O)N1` (centres unmarked) [GT-06992, 3-(4-(azetidin-3-ylthio)-1-oxoisoindolin-2-yl)piperidine-2,6-dione], in assay [2], the IC50 lay within 500 to 1000 nM.
In turn, `O=C1CCC(N2Cc3ccc(SC4CNC4)cc3C2=O)C(=O)N1` (centres unmarked) [GT-06993, 3-(6-(azetidin-3-ylthio)-1-oxoisoindolin-2-yl)piperidine-2,6-dione] gave a half-inhibitory concentration (IC50) in assay [2] of 1000 to 1900 nM.
For `O=C1CCC(N2Cc3cc(SC4CC5CNCC5C4)ccc3C2=O)C(=O)N1` (centres unmarked) [GT-06996, 3-(5-((octahydrocyclopenta[c]pyrrol-5-yl)thio)-1-oxoisoindolin-2-yl)piperidine-2,6-dione], the concentration for half-maximal inhibition (IC50) in assay [2] is 1000 to 1900 nM.
In assay [2], `O=C1CCC(N2Cc3cc(SC4CCC5(CCNCC5)CC4)ccc3C2=O)C(=O)N1` (centres unmarked) [GT-06998, 3-(5-((3-azaspiro[5.5]undecan-9-yl)thio)-1-oxoisoindolin-2-yl)piperidine-2,6-dione] registered an IC50 of 1000 to 1900 nM.
With `O=C1CCC(N2Cc3cc(SC4CCNCC4(F)F)ccc3C2=O)C(=O)N1` (centres unmarked) [GT-06999, 3-(5-((3,3-difluoropiperidin-4-yl)thio)-1-oxoisoindolin-2-yl)piperidine-2,6-dione], in assay [2], the IC50 was in the range of 500 to 1000 nM.
On the same count and under the same terms, next, `O=C1CCC(N2Cc3c(OC4CNC4)cccc3C2=O)C(=O)N1` (centres unmarked) [GT-07000, 3-(4-(azetidin-3-yloxy)-1-oxoisoindolin-2-yl)piperidine-2,6-dione]: less than 500 nM.
As for `O=C1CCC(N2Cc3cc(OC4CCCNCC4)ccc3C2=O)C(=O)N1` (centres unmarked) [GT-07003, 3-(5-(azepan-4-yloxy)-1-oxoisoindolin-2-yl)piperidine-2,6-dione], the “substrate protein remaining %” value in assay [1] is on record as “A (0%≤ substrate protein remaining % ≤80%)”.
Regarding `O=C1CCC(N2Cc3cc(OC4CC5CNCC5C4)ccc3C2=O)C(=O)N1` (centres unmarked) [GT-07004, 3-(5-((octahydrocyclopenta[c]pyrrol-5-yl)oxy)-1-oxoisoindolin-2-yl)piperidine-2,6-dione], in assay [2], the half-inhibitory concentration (IC50) lay in the range of 1000 to 1900 nM.
In assay [2], `CC1(C)CCC(C(=O)N2CCC(Sc3ccc4c(c3)CN(C3CCC(=O)NC3=O)C4=O)C(F)(F)C2)=C(c2ccc(Cl)cc2)C1` (centres unmarked) [GT-07017, 3-(5-((1-(4′-chloro-5,5-dimethyl-3,4,5,6-tetrahydro-[1,1′-biphenyl]-2-carbonyl)-3,3-difluoropiperidin-4-yl)thio)-1-oxoisoindolin-2-yl)piperidine-2,6-dione] came in with an IC50 of 1000 to 1900 nM.
The compound `CC1(C)CCC(C(=O)N2CCCC(Oc3ccc4c(c3)CN(C3CCC(=O)NC3=O)C4=O)CC2)=C(c2ccc(Cl)cc2)C1` (centres unmarked) [GT-07018, 3-(5-((1-(4′-chloro-5,5-dimethyl-3,4,5,6-tetrahydro-[1,1′-biphenyl]-2-carbonyl)azepan-4-yl)oxy)-1-oxoisoindolin-2-yl)piperidine-2,6-dione] showed an IC50 in assay [2] of less than 500 nM.
